Values quoted from earlier work in US20230226011A1, “Novel Pharmaceutical Composition Comprising Combination of Olopatadine and Nepafenac” (Zenvision Pharma LLP, priority 2020, published 2023).
Structures can show the parent of a compound that is named as a salt.

Conditions: for solubility in water: solvent water

Structure (SMILES)	solubility in water	solubility in chloroform (solvent chloroform)	solubility in methanol (solvent methanol)
NC(=O)Cc1cccc(C(=O)c2ccccc2)c1N [Nepafenac, 2-amino-3-benzoylbenzeneacetamide]	practically insoluble		
CN(C)CC/C=C1/c2ccccc2COc2ccc(CC(=O)O)cc21 [Olopatadine hydrochloride, 11-[(Z)-3(Dimethylamino)propylidene]-6-11-dihydrodibenz[b,e] oxepin-2-acetic acid, hydrochloride]	sparingly soluble	insoluble	sparingly soluble
